What is called IC50 is the concentration at which inhibition is half-maximal.

The target of one assay is T1, His-BIR3 (241-356, XIAP) (Homo sapiens, UniProt P98170).
T1 construct: additions of His-BIR3 (241-356, XIAP), fluorescein labeled SMAC peptide
As to the kind of experiment: XIAP-BIR3/SMAC Homogeneous Time Resolved Fluorescence (HTRF) Assay. Conditions: Table 4. Type of assay: binding. Background: Time-resolved FRET reads energy transfer from a long-lived donor to a nearby acceptor.

Assay [1] addresses T2, His-BIR2-3 (125-356, C202A/C213G, XIAP) (Homo sapiens, UniProt P98170, C202A/C213G).
T2 construct: additions of His-BIR2-3 (125-356, C202A/C213G, XIAP), fluorescein labeled dimeric SMAC peptide
Put plainly: XIAP-BIR2-3 Dimeric SMAC Peptide Homogeneous Time Resolved Fluorescence (HTRF) Assay. Type of assay: binding. The settings on record: XIAP BIR2-3, HTRF, Table 4.

T1 sequence (P98170 241-356): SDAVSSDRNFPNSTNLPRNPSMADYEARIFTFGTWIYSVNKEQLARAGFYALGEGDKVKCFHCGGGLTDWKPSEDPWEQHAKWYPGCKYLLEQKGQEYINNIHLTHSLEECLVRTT
T2 sequence (P98170 125-356 C202A/C213G): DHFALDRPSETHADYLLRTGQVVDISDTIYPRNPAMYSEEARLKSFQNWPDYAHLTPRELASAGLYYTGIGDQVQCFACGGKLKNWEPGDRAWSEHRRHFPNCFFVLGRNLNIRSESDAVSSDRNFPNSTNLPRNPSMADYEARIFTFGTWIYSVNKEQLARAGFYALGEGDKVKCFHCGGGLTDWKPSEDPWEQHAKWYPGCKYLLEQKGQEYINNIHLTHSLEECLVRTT

Turning to `CNC(C)C(=O)NC(C(=O)N1CC2CC1C(=O)NC(Cc1ccc3ccccc3c1)C(=O)NC(C(=O)O)Cc1ccc(cc1)OCc1cn(nn1)C1CC(C(=O)NC(Cc3ccc4ccccc4c3)C(=O)NC(C(=O)O)c3ccc(cc3)OCc3cn2nn3)N(C(=O)C(NC(=O)C(C)NC)C(C)(C)C)C1)C(C)(C)C` (stereo not drawn) [Compound 1013], the IC50 on His-BIR3 (241-356, XIAP) is less than 10 nM; in assay [1], no more than 1 nM. Turning to `CN[C@@H](C)C(=O)N[C@H](C(=O)N1C[C@@H]2C[C@H]1C(=O)N[C@@H](Cc1ccc3ccccc3c1)C(=O)N[C@H](C(=O)O)Cc1ccc(cc1)OCc1cn(nn1)[C@H]1C[C@@H](C(=O)N[C@@H](Cc3ccc4ccccc4c3)C(=O)N[C@H](C(=O)NS(=O)(=O)c3ccccn3)Cc3ccc(cc3)OCc3cn2nn3)N(C(=O)[C@@H](NC(=O)[C@H](C)NC)C(C)(C)C)C1)C(C)(C)C` [Compound 1035], the IC50 on His-BIR3 (241-356, XIAP) is less than 10 nM; in assay [1], no more than 1 nM. As to `CN[C@@H](C)C(=O)N[C@H](C(=O)N1C[C@@H]2C[C@H]1C(=O)N[C@@H](Cc1ccc3ccccc3c1)C(=O)N[C@H](C(=O)O)Cc1ccc(cc1)OCc1cn(nn1)[C@H]1C[C@@H](C(=O)N[C@@H](Cc3ccc4ccccc4c3)C(=O)N[C@H](C(=O)N[C@@H](C)C(=O)O)Cc3ccc(cc3)OCc3cn2nn3)N(C(=O)[C@@H](NC(=O)[C@H](C)NC)C(C)(C)C)C1)C(C)(C)C` [Compound 1033], the IC50 was less than 10 nM on His-BIR3 (241-356, XIAP) and 1 to 10 nM in assay [1]. `CN[C@@H](C)C(=O)N[C@H](C(=O)N1C[C@@H]2C[C@H]1C(=O)N[C@@H](Cc1ccc3ccccc3c1)C(=O)N[C@H](C(=O)O)Cc1ccc(cc1)OCc1cn(nn1)[C@H]1C[C@@H](C(=O)N[C@@H](Cc3ccc4ccccc4c3)C(=O)N[C@H](C(=O)NCC[C@@H](O)C[C@@H](O)CC(=O)O)Cc3ccc(cc3)OCc3cn2nn3)N(C(=O)[C@@H](NC(=O)[C@H](C)NC)C(C)(C)C)C1)C(C)(C)C` [Compound 1044]: the 50% inhibitory concentration (IC50) against His-BIR3 (241-356, XIAP) was less than 10 nM; in assay [1] it was 1 to 10 nM. Turning to `CN[C@@H](C)C(=O)N[C@H](C(=O)N1C[C@@H]2C[C@H]1C(=O)N[C@@H](Cc1ccc3ccccc3c1)C(=O)N[C@H](C(=O)O)Cc1ccc(cc1)NC(=O)c1cn(nn1)[C@H]1C[C@@H](C(=O)N[C@@H](Cc3ccc4ccccc4c3)C(=O)N[C@H](C(=O)O)Cc3ccc(cc3)OCc3cn2nn3)N(C(=O)[C@@H](NC(=O)[C@H](C)NC)C(C)(C)C)C1)C(C)(C)C` [Compound 1014], the IC50 at His-BIR3 (241-356, XIAP) was less than 10 nM; in assay [1] it was no more than 1 nM. For `CN[C@@H](C)C(=O)N[C@H](C(=O)N1C[C@@H]2C[C@H]1C(=O)N[C@@H](Cc1ccc3ccccc3c1)C(=O)N[C@H](C(=O)O)Cc1ccc(cc1)OCc1cn(nn1)[C@H]1C[C@@H](C(=O)N[C@@H](Cc3ccc4ccccc4c3)C(=O)N[C@H](C(=O)NS(=O)(=O)CCCC(=O)O)Cc3ccc(cc3)OCc3cn2nn3)N(C(=O)[C@@H](NC(=O)[C@H](C)NC)C(C)(C)C)C1)C(C)(C)C` [Compound 1045] the same measures were less than 10 nM and no more than 1 nM. For `CN[C@@H](C)C(=O)N[C@H](C(=O)N1C[C@@H]2C[C@H]1C(=O)N[C@@H](Cc1ccc3ccccc3c1)C(=O)N[C@H](C(=O)O)Cc1ccc(cc1)OCc1cn(nn1)[C@H]1C[C@@H](C(=O)N[C@@H](Cc3ccc4ccccc4c3)C(=O)N[C@H](C(=O)N(C)CC(=O)O)Cc3ccc(cc3)OCc3cn2nn3)N(C(=O)[C@@H](NC(=O)[C@H](C)NC)C(C)(C)C)C1)C(C)(C)C` [Compound 1020] the same measures were 10 to 100 nM and 1 to 10 nM. On to `CN[C@@H](C)C(=O)N[C@H](C(=O)N1CCN2CCn3cc(nn3)C[C@@H](C(=O)O)NC(=O)[C@H](Cc3ccc4ccccc4c3)NC(=O)[C@@H]3CN(CCN3C(=O)[C@@H](NC(=O)[C@H](C)NC)C(C)(C)C)CCn3cc(nn3)C[C@@H](C(=O)O)NC(=O)[C@H](Cc3ccc4ccccc4c3)NC(=O)[C@@H]1C2)C(C)(C)C` [Compound 1050], for which the IC50 in assay [1] is greater than 10 nM.
